{"source": "paper PMC9963398", "about": "“Discovery of New Quinolone-Based Diarylamides as Potent B-RAF^V600E/C-RAF Kinase Inhibitors Endowed with Promising In Vitro Anticancer Activity” (International Journal of Molecular Sciences, 2023)", "origin": "cited, not measured here", "set-up_in_all_cases": "method as in PMID 32745753", "key": {"SK-MEL-2": {"tested_on": "SK-MEL-2", "settings": "SK-MEL-2, Melanoma; cited from earlier work"}, "RPMI-8226": {"tested_on": "RPMI-8226", "settings": "RPMI-8226, Leukemia; cited from earlier work"}, "SNB-19": {"tested_on": "SNB-19", "settings": "SNB-19, CNS cancer; cited from earlier work"}, "HS 578T": {"tested_on": "HS 578T", "settings": "Breast cancer; cited from earlier work"}, "HCT-15": {"tested_on": "HCT-15", "settings": "HCT-15, Colon cancer; cited from earlier work"}, "NCI-H522": {"tested_on": "NCI-H522", "settings": "NCI-H522, NSCL cancer; cited from earlier work"}, "786-0": {"tested_on": "786-0", "settings": "786-0, Renal cancer; cited from earlier work"}, "MDA-MB-435": {"tested_on": "MDA-MB-435", "settings": "MDA-MB-435, Melanoma; cited from earlier work"}, "DU-145": {"tested_on": "DU-145", "settings": "DU-145, Prostate cancer; cited from earlier work"}, "SK-MEL-5": {"tested_on": "SK-MEL-5", "settings": "SK-MEL-5, Melanoma; cited from earlier work"}, "HCC-2998": {"tested_on": "HCC-2998", "settings": "HCC-2998, Colon cancer; cited from earlier work"}}, "data": [{"molecule": "CNC(=O)c1cc(Oc2ccc(NC(=O)Nc3ccc(Cl)c(C(F)(F)F)c3)cc2)ccn1", "note": "[Sorafenib]", "values": [{"measurement": "GI50", "setting": "SK-MEL-2", "result": 1800, "unit": "nM"}, {"measurement": "GI50", "setting": "RPMI-8226", "result": 1500, "unit": "nM"}, {"measurement": "GI50", "setting": "SNB-19", "result": 3.4, "unit": "µM"}, {"measurement": "GI50", "setting": "HS 578T", "result": 2600, "unit": "nM"}, {"measurement": "GI50", "setting": "HCT-15", "result": 2500, "unit": "nM"}, {"measurement": "GI50", "setting": "NCI-H522", "result": 2100, "unit": "nM"}, {"measurement": "GI50", "setting": "786-0", "result": 3.4, "unit": "µM"}, {"measurement": "GI50", "setting": "MDA-MB-435", "result": 1800, "unit": "nM"}, {"measurement": "GI50", "setting": "DU-145", "result": 3.3, "unit": "µM"}, {"measurement": "GI50", "setting": "SK-MEL-5", "result": 1500, "unit": "nM"}, {"measurement": "GI50", "setting": "HCC-2998", "result": 3000, "unit": "nM"}]}]}
